In brackets after ≈: the same amount, converted by molar mass. Read-outs that look alike come from different tables or passages of the source.
Tests used:
Assay type in all cases: cell-based
Candida biofilms = assay: AST, biofilm mode, all Candida strains; conditions: all six strains
Method: (§1) The in vitro susceptibility of well-characterized wild-type C. albicans strain SC5314, which was provided by Prof. N.A.R. Gow (University of Aberdeen, Aberdeen, UK) was tested against 1280 compounds from the Library of Pharmacologically Active Compounds (LOPAC^1280TM, Sigma–Aldrich, USA). The screen was performed with C. albicans SC5314, and hits were further confirmed with the type strains C. dubliniensis MYA 577, C. glabrata ATCC 2001, C. kusei ATCC 6258, C. palapsilosis ATCC 22019, and C. tropicalis ATCC13803.
(§2) To investigate the antifungal effects of the hit compounds, ASTs were conducted using broth microdilution assays with high cell densities of the planktonic mode, adhesion phase and biofilm mode against Candida strains (C. albicans, C. dubliniensis, C. glabrata, C. kusei, C. palapsilosis, and C. tropicalis). First, high density cell (1 × 10^7 cells/mL) suspensions were added to the RPMI medium containing each hit compound (10–1000 μM) in 96-well plates and incubated at 37°C for 24 h. Next, the 50% minimum inhibitory concentrations (MICs) of high-density Candida planktonic cultures were determined using the CellTiter-Glo luminescent cell viability kit, as described above. The antifungal effects of the hit compounds were also evaluated in the adhesion phase and the biofilm mode, in the same manner as the planktonic mode. Candida biofilms were produced as described previously ([Jin et al., 2004]). In brief, Candida cells were grown on SDA at 37°C for 18 h. A loopful of the yeast culture was then inoculated into yeast nitrogen base (YNB) (Difco, USA) medium supplemented with 50 mM glucose. After overnight broth culture in a rotary shaker at 75 rpm, the cells were washed twice with 20 mL of PBS (pH 7.2, 0.1 M). The yeast cells were re-suspended in YNB supplemented with 100 mM glucose and adjusted to an optical density of 0.38 (1 × 10^7 cells/mL) at 520 nm. This standardized cell suspension was used immediately to form biofilms in the wells of 96-well polystyrene culture plates (Iwaki, Tokyo, Japan). First, the cells were incubated for 90 min at 37°C in a shaker at 75 rpm to allow yeast adherence to the well surface (adhesion phase), before the medium was aspirated and each well was washed once with PBS to remove non-adherent cells. YNB containing 100 mM glucose was then pipetted into each well and the plate was incubated at 37°C in a shaker at 75 rpm for 24 h. Non-adherent cells were removed by pipetting and the biofilms were washed twice with PBS. Following this biofilm growth phase, microscopic examination of the cultures was performed to exclude contamination. These ASTs were repeated on three different occasions.

C. dubliniensis MYA 577 = assay: AST, adhesion phase; conditions: Candida dubliniensis, MYA577, 1.5 h, read-out: Minimum inhibitory concentration (MIC)
Method: as §1, §2

C. albicans SC5314 = assay: AST, adhesion phase; conditions: Candida albicans, SC5314, 1.5 h, read-out: Minimum inhibitory concentration (MIC)
Method: as §1, §2

Candida strains = assay: AST, adhesion phase, all Candida strains; conditions: all six strains
Method: as §1
as §2, with “First, the cells were incubated for 90 min at 37°C in a shaker at 75 rpm to allow yeast adherence to the well surface (adhesion phase), before the medium was aspirated and each well was washed once with PBS to remove non-adherent cells. YNB containing 100 mM glucose was then pipetted into each well and the plate was incubated at 37°C in a shaker at 75 rpm for 24 h. Non-adherent cells were removed by pipetting and the biofilms were washed twice with PBS. Following this biofilm growth phase, microscopic examination of the cultures was performed to exclude contamination. These ASTs were repeated on three different occasions.” left out

[1] = adhesion phase (90 min adherence)

Structure (SMILES)	concentration that inhibited the metabolic activity of Candida biofilms (Candida biofilms; listed as BAY11-7082)	concentration that inhibited the metabolic activity of Candida biofilms (Candida biofilms; listed as Bay 11-7082) [µM]	MIC (C. dubliniensis MYA 577; [1]) [µM]	MIC (C. albicans SC5314; [1]) [µM]	concentration that inhibited the metabolic activity of Candida strains (Candida strains) [µM]	concentration that inhibited the metabolic activity of Candida biofilms (Candida biofilms; listed as BAY11-7085)	concentration that inhibited the metabolic activity of Candida biofilms (Candida biofilms; listed as Bay 11-7085) [µM]	concentration that inhibited the metabolic activity of Candida biofilms (Candida biofilms) [µM]	concentration that inhibited the metabolic activity of Candida biofilms (Candida biofilms; listed as Sanguinarine chloride hydrate) [µM]	concentration that inhibited the metabolic activity of Candida biofilms (Candida biofilms; listed as sanguinarine chloride hydrate)	MIC (C. dubliniensis MYA 577) [µM]	MIC (C. albicans SC5314) [µM]
Cc1ccc(S(=O)(=O)/C=C/C#N)cc1 [Bay11-7082]	below 500 μM	< 62.5	15.6 (≈ 3.23 µg/mL)	31.3 (≈ 6.49 µg/mL)	< 31.3	–	–	–	–	–	–	–
CC(C)(C)c1ccc(S(=O)(=O)/C=C/C#N)cc1 [Bay11-7085]	–	–	15.6 (≈ 3.89 µg/mL)	31.3 (≈ 7.8 µg/mL)	< 31.3	below 500 μM	< 62.5	–	–	–	–	–
Cc1c2ccncc2c(C)c2c1[nH]c1ccccc12 [Ellipticine]	–	–	125 (≈ 30.8 µg/mL)	62.5 (≈ 15.4 µg/mL)	–	–	–	< 500	–	–	–	–
C[n+]1cc2c3c(ccc2c2ccc4cc5c(cc4c21)OCO5)OCO3 [Sanguinarine, Sanguinarine chloride hydrate]	–	–	–	–	< 15.6	–	–	–	< 31.3	below 500 μM	15.6	15.6

Reference: publication PMC4686731, “Screening of Pharmacologically Active Small Molecule Compounds Identifies Antifungal Agents Against Candida Biofilms” (Frontiers in Microbiology, 2015)
